In patent US7592350B2, “Polycyclic compounds as potent alpha2-adrenoceptor antagonists” (Orion Corporation, priority 2002, dated 2009):
Read-outs that look alike come from different tables or passages of the source.

Tests used:
alpha2A-adrenoceptor = target: T1, alpha2A-adrenoceptor (Homo sapiens, UniProt P08913); experiment: Radioligand binding to alpha2-adrenoceptors (alpha2A); details: calculated Ki from radioligand binding assays; read-out: Binding affinity (Ki) alpha2A
T1 sequence (P08913 1-465): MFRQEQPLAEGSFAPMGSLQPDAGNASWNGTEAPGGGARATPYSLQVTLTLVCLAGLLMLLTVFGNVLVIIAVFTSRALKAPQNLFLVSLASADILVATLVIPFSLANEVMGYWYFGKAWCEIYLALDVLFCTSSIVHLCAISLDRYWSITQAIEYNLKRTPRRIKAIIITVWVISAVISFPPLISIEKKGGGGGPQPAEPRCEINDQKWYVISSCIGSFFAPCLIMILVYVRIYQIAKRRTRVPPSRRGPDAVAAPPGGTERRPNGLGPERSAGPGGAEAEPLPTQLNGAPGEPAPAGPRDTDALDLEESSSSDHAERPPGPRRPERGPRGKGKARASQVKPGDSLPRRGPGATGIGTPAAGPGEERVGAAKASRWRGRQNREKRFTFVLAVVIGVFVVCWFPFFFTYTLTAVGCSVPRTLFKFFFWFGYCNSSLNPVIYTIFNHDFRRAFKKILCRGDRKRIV

alpha2B-adrenoceptor = target: T2, alpha2B-adrenoceptor (Homo sapiens, UniProt P18089); experiment: Radioligand binding to alpha2-adrenoceptors (alpha2B); details: calculated Ki from radioligand binding assays; read-out: Binding affinity (Ki) alpha2B
T2 sequence (P18089 1-450): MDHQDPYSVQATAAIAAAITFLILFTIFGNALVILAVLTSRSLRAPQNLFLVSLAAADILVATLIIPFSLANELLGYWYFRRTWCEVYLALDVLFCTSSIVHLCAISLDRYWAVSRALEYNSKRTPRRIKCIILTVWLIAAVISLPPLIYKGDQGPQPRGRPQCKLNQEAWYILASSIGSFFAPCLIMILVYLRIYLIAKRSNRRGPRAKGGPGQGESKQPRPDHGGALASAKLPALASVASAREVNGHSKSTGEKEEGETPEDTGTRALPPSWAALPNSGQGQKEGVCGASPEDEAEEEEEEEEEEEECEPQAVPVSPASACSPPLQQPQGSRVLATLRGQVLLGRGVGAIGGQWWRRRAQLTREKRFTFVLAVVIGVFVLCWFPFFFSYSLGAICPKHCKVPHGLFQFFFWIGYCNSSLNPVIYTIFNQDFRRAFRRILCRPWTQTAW
Excerpt: Examples of the alpha2-adrenoceptor binding affinities of the compounds including in the present invention are shown in the Table 1. Many of these compouinds are high-affinity ligands for all the alpha2-receptors, but some of them display selectivity for the alpha2C-subtype.

alpha2C-adrenoceptor = target: T3, alpha2C-adrenoceptor (Homo sapiens, UniProt P18825); experiment: Radioligand binding to alpha2-adrenoceptors (alpha2C)
T3 sequence (P18825 1-462): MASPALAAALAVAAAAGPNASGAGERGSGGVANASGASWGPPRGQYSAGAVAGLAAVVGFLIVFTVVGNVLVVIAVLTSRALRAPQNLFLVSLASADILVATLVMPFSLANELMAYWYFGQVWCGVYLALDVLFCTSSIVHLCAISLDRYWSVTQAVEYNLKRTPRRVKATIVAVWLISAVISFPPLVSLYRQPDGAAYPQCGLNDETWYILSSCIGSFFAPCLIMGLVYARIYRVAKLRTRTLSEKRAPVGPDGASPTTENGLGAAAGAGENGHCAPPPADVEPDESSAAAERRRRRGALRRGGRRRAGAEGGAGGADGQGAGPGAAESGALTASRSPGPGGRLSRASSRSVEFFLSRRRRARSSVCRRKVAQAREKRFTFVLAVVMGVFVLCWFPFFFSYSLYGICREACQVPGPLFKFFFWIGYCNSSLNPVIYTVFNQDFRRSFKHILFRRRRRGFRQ

[1] = calculated Ki from radioligand binding assays, read-out: Binding affinity (Ki) alpha2C

Row | SMILES | Ki (alpha2A-adrenoceptor) | Ki (alpha2B-adrenoceptor) | Ki (alpha2C-adrenoceptor; [1]) | Ki (alpha2C-adrenoceptor)
1 | CC(O)C1CCCN2CCc3c([nH]c4ccccc34)C12 (stereo not drawn) [Compound P, 1-(1α2,3,4,6,7,12 12bβ-Octahydroindolo[2,3-a]quinolizin-1-yl)-ethanol] | 290 nM | 410 nM | 90 nM | 
2 | OC[C@H]1CCCN2CCc3c([nH]c4ccccc34)[C@H]12 (relative stereo) [Compound O, (1β,2,3,4,6,7,12,12bα-Octahydroindolo’[2,3-a]quinolizin-1-yl)-methanol] | 380 nM | 270 nM | 110 nM | 
3 | CC[C@]1(CO)CCCN2CCc3c([nH]c4ccccc34)[C@H]21 (relative stereo) [Compound M, (1β-Ethyl-1,2,3,4,6,7,12,12bβ-octahydroindolo[2,3-a]quinolizin-1-yl)-methanol] | 440 nM | 470 nM | 110 nM | 
4 | CCC1(O)C(C)CCN2CCc3c([nH]c4ccccc34)C21 (stereo not drawn) [Compound B, 1α-Ethyl-2α-methyl-1,2,3,4,6,7,12,12bβ-octahydro-indolo[2,3-a]quinoulzin-1-ol] | 130 nM | 160 nM | 25 nM | 
5 | CC[C@@H]1CCCN2CCc3c([nH]c4ccccc34)[C@@H]12 (relative stereo) [Compound J, 1β-ethyl-1,2,3,4,6,7,12,12bβ-octabydroindolo[2,3-a]quinolizine] | 210 nM | 520 nM | 75 nM | 
6 | CCC1=C(C)CC2c3[nH]c4ccccc4c3CCN2C1 (stereo not shown) [Compound N, 3-Ethyl-2-methyl-1,4,6,7,12,12b-hexahydro-indolo[2,3-a]quinolizine] | 130 nM | 1110 nM | 46 nM | 
7 | C1=CCN2CCc3c([nH]c4ccccc34)C2C1 (stereo not shown) [Compound I, 1,4,6,7,12,12b-Hexahdroindolo[2,3-a]quinolizine] | 150 nM | 460 nM |  | 85 nM
8 | C[C@@]1(O)CCCN2CCc3c([nH]c4ccccc34)[C@H]21 (relative stereo) [Compound H, 1α-Methyl-1,2,3,4,6,7,12,12bβ-octahydroindolo[2,3-a]quinolizin-1-ol] | 280 nM | 45 nM | 23 nM | 
9 | COC1CCN2CCc3c([nH]c4ccccc34)C2C1 (stereo not drawn) [Compound D, 2α-Methoxy-1,2,3,4,6,7,12,12bα-octahydro-indolo[2,3-a]quinolizine] | 29 nM | 81 nM | 17 nM | 
10 | CC(C)(C)[C@@H]1CCN2CCc3c([nH]c4ccccc34)[C@@H]2C1 (relative stereo) [Compound Q, 2β-tert-butyl-1,2,3,4,6,7,12,12bα-octahydro-indolo[2,3-a]quinolizine] | 27 nM | 40 nM | 6.4 nM | 
11 | CCC(C)C1(O)CCCN2CCc3c([nH]c4ccccc34)C21 (stereo not shown) [Compound C, 1-s-Butyl-1,2,3,4,6,7,12,12bβ-octahydro-indolo[2,3-a]quinolizin-1-ol] | 710 nM | 580 nM | 87 nM | 
12 | c1ccc2c3c([nH]c2c1)C1CCCCCN1CC3 (stereo not shown) [Compound E, 2,3,4,5,7,8,13,13b-Octahydro-1H-azepino[1′,2′1,2]pyrido[3,4-b]indole] | 30 nM | 110 nM | 26 nM | 
13 | C[C@@H]1CCCN2CCc3c(oc4ccccc34)[C@@H]12 (relative stereo) [Compound G, 1-Methyl-1α,3,4,6,11bβ-hexahydro-2H-11-oxa4a-aza-benzo[a]fluorene] | 96 nM |  | 22 nM | 
14 | CC(C)C1(O)CCCN2CCc3c([nH]c4ccccc34)C21 (stereo not drawn) [Compound A, 1α-Isopropyl-1,2,3,4,6,7,12,12bβ-octahydroindolo[2,3-a]quinolizin-1-ol] | 480 nM | 330 nM | 61 nM | 
15 | OC12CCCCC1CCN1CCc3c([nH]c4ccccc34)C12 (stereo not shown) [Compound F, 2,3,4,4aβ,5,6,7,8,13,13bβ-Decahydro-1H-6a,13-diaza-indeno[1,2-c]phenanthren-13cβ-ol] | 514 nM |  | 70 nM | 
